The values that follow come from US11371020B2, “Uses of epithelial-to-mesenchymal inhibitors in generating pacemaker cells” (Emory University, priority 2016, dated 2022).

Molecules are shown by their SMILES. “Also recorded” adds a separate entry of the source.

The subject of assay [1] is TBX18-induced pacemaker cells (TBX18-iPCs). As to the kind of experiment: Electrode-to-electrode impedance measurement of migration of TBX18-iPCs. The class given is cell-based, rat. The note with it: A83-01 0.5 microM; NRVM transduced with adenoviral human TBX18. The protocol: TBX18-iPCs were created by transducing freshly isolated neonatal rat ventricular myocytes (NRVM) with an adenoviral vector expressing human TBX18. TBX18-iPC were cultured with an inhibitor of EMT, A83-01 (0.5 microM).
(§1) Experiments were performed to test whether i) TBX18-induced pacemaker cells (TBX18-iPCs) migrate, and ii) inhibition of EMT in TBX18-iPCs may stop the migration, thereby enhancing its pacing function. (See FIGS. 1-8). TBX18-iPCs were created by transducing freshly-isolated neonatal rat ventricular myocytes (NRVM) with an adenoviral vector expressing human TBX18. TBX18-iPC were cultured with an inhibitor of EMT, A83-01. […] TBX18-iPCs beat in synchrony upon EMT inhibition, and their automaticity persists over long-term.

Another assay has as its system EMT genes. As to the kind of experiment: EMT-related gene expression in TBX18-induced pacemaker cells. The class given is cell-based, rat. The note with it: TBX18-iPCs cultured with A83-01. The protocol: as §1
Assay [2] deals with TBX18-induced pacemaker cells (TBX18-iPCs). As to the kind of experiment: Beating, field potential and Ca2+ transient recording of TBX18-iPCs. The class given is cell-based, rat. The protocol: as §1
Another assay relates to TBX18-iPCs. Put plainly: Cx43 localisation, gap junctional coupling and Hcn4 expression in TBX18-iPCs. The class given is cell-based, rat. Here is the method: as §1
TBX18 mediates both automaticity and EMT in iPCs.

In another assay the target is T1, ALK-5 (Homo sapiens, UniProt P36897).
T1 sequence (P36897 34-503): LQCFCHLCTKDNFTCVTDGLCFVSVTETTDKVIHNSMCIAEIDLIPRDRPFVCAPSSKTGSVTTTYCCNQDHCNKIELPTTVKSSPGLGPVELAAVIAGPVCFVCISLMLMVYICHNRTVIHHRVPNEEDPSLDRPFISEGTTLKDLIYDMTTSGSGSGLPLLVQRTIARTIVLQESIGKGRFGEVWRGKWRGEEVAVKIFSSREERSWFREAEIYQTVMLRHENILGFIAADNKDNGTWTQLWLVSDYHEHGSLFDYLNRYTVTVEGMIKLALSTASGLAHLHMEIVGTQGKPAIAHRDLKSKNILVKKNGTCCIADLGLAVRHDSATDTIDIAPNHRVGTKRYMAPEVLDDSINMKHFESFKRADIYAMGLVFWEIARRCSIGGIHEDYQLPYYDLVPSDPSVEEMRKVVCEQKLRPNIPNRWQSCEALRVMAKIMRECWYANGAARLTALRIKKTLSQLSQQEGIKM
Conditions: cited from earlier work.

With `Cc1cccc(-c2nn(C(=S)Nc3ccccc3)cc2-c2ccnc3ccccc23)n1` [A83-01, 3-(6-methyl-2-pyridinyl)-N-phenyl-4-(4-quinolinyl)-1H-pyrazole-1-carbothioamide], the “migration of TBX18-iPCs” value in assay [1] is reported as “remain stationary; also recorded: migratory behavior is deleted”. Besides, the “EMT gene expression in the iPCs” value in the assay on EMT genes is listed as “down-regulates EMT genes”. For the same compound, the “persistence of automaticity of iPMs” value in assay [2] (in A83-01 versus without it) is given as “persists much longer”. The synchrony of pacing entry in assay [2] (in the presence of A83-01) was “synchronous and rhythmic pacing; also recorded: pace in unity”. In assay [2] (upon EMT inhibition), the “beating rate of TBX18-iPCs” value is on record as “beating rate increases”; the “contraction and relaxation speed of TBX18-iPCs” value is “contract and relax faster”. Also, the “gap junctional coupling of EMT-inhibited TBX18-iPCs” value in the assay on TBX18-iPCs is given as “long-term gap junctional coupling”. Moreover, in the assay on TBX18-iPCs (upon EMT inhibition), the “Hcn4 expression in TBX18-iPCs” value is listed as “enhances Hcn4 expression” and the “localisation of nuclear-bound Cx43 proteins in TBX18-iPCs” value is “translocated to the sarcolemma”. Further, the “Smad signaling and epithelial-to-mesenchymal transition by transforming growth factor-beta” value at ALK-5 is listed as “inhibits”.
